Assays:
[1] = test system: vegetation and micro-organisms (algae, bryozoas, acorn barnacles, polichaetas); experiment: Example 2: antifouling paints on fibreglass panels immersed in seawater (dockyard of Genoa), comparison with Ciclor 98; settings: for 2^ Controls after a four month exposure: 5% in hard-matrix antifouling paint, no copper (panels P2, P3, P4), seawater, Genoa; for antifouling activity compared to commercial antifouling product Ciclor 98: hard-matrix paints, no copper, seawater Genoa
Description: The compounds MBP and MTB were examined in different percentages, in hard-matrix antifouling formulations. The tests included the use of a common commercial antifouling product, Ciclor 98, which contains […] as active ingredient, largely used in the formulation of yatch paints, and a control panel (untreated, without biocide), as it is shown in Table III:
The prepared paints were applied to the fibreglass panels previously treated with a coating of epoxy paint and then immersed in seawater (dockyard of Genoa, Italy, 21/7/1999). To determine the deposition or formation of vegetation and micro-organisms, both qualitatively and quantitatively, and to evaluate the antifouling activity of the samples, two different controls were carried out after two months (1^control) and after 4 months (2^control).

[2] = test system: vegetation and micro-organisms (algae, bryozoas, acorn barnacles, polichaetas); experiment: Example 3: antifouling paints on fibreglass panels immersed in seawater (dockyard of Genoa), comparison with MSB and Ciclor 98; settings: for 2^ Controls after a four month exposure: 0.8% in hard-matrix antifouling paint, +Cu2O per Table V (panels P1, P2), seawater, Genoa; for antifouling activity: 5% in paint, not associated with Cu2O (panels P4, P5, N), MBP and MTB more than Ciclor 98 (panel P7); for antifouling effectiveness: in association with Cu2O (panels P1, P2 and P8), synergistic action
Description: The compounds MBP and MTB were examined in different percentages, in hard-matrix antifouling formulations. The tests included the use of Ciclor 98, the use of the menadione sodium bisulphite (MSB) and a control panel (untreated), as is shown in Table V:
The prepared paints were applied to the fibreglass panels previously treated with a coating of epoxy paint and then immersed in seawater (dockyard of Genoa, Italy, 21/7/1999).
To determine the deposition or formation of vegetation and micro-organisms, both qualitatively and quantitatively, and to evaluate the antifouling activity of the samples, two different controls were carried out after two months (1^control) and after 4 months (2^control).

[3] = test system: vegetation and micro-organisms (algae, serpulidae, acorn barnacles, bryozoas); experiment: Example 1: antifouling paints on fibreglass panels immersed in seawater (dockyard of La Spezia); settings: 5% in hard-matrix antifouling paint, +Cu2O (panels P34, P35)
Description: The compounds MBP and MTB were examined in different percentages, singularly and/or in combination, in hard-matrix antifouling formulations containing or not containing copper, as reported in Table I:
The different paints were applied to the fibreglass panels previously treated with a coating of epoxy paint and then immersed in seawater (dockyard of La Spezia, Italy, 9/5/2000). To determine the deposition or formation of vegetation and micro-organisms, both qualitatively and quantitatively, and to evaluate the antifouling activity of the samples, two different controls were carried out after two months (1^control) and after six months (2^control).

SMILES | 2^ Controls after a four month exposure [1] | antifouling activity compared to commercial antifouling product Ciclor 98 [1] | 2^ Controls after a four month exposure [2] | antifouling activity [2] | antifouling effectiveness [2] | 2^ Control after a six month exposure [3]
C1CNCCN1.CC1(S(=O)(=O)O)CC(=O)c2ccccc2C1=O.CC1(S(=O)(=O)O)CC(=O)c2ccccc2C1=O (stereo not shown) [MBP, menadione (bis) piperazine bisulfite] | Clean | increased antifouling activity | Clean | excellent antifouling activity | excellent antifouling effectiveness | A few green algae
CC1(S(=O)(=O)[O-])CC(=O)c2ccccc2C1=O.[Na+] (stereo not shown) [MSB, menadione sodium bisulphite, reference compound] | – | – | – | did not show any antifouling activity | – | –
CC1(S(=O)(=O)O)CC(=O)c2ccccc2C1=O.Nc1nc(N)nc(N)n1 (stereo not shown) [MTB, menadione triaminotriazine bisulfite] | Clean | increased antifouling activity | Clean | excellent antifouling activity | excellent antifouling effectiveness | A few green algae

Reference: patent US6596064B2, “Biocidal-antifouling agents with low ecotoxicity index” (Luigi Stoppani S.p.A., priority 1999, dated 2003)
